Measured values: paper PMC8879660, “Characterizing the Physicochemical Properties of Two Weakly Basic Drugs and the Precipitates Obtained from Biorelevant Media” (Pharmaceutics, 2022)
≈ marks a conversion by molar mass, not a printed value. Read-outs that look alike come from different tables or passages of the source.

Experiments:
[1] = Equilibrium solubility of API in different media; assay type: physicochemical; conditions: 37 °C, 200 rpm
Description: To select an appropriate method for the preparation of precipitates, the equilibrium solubility of model drugs was firstly investigated in various media, including pH 1.0 HCl solution, pH 5.0, pH 6.5, and pH 8.0 phosphate buffer solution (PBS), fasted state simulated intestinal fluid (FaSSIF, Fa), and fed-state simulated intestinal fluid (FeSSIF, Fe). The excess sample was added to the medium, and the test of equilibrium solubility was performed with the stirring rate of 200 revolutions per minute (rpm) under 37 °C for 24 h. Sample concentration was detected every minute by Pion’s in situ fiber-optic UV dissolution monitoring system (Pion Scientific Instruments, Billerica, MA, USA), a real-time online detector. All measurements were performed in triplicate.

[2] = stated in Materials, source not given; cited from earlier work
[3] = Stirring PAMPA permeability assay of precipitates and API in different donor media; assay type: in vitro ADME
Description: In order to simulate the permeation of compounds in different crystal structures in the GI tract, the stirring PAMPA method (Pion Inc., Billerica, MA, USA) was used to assess the passive transcellular permeability. The donor and acceptor chambers representing the GI tract and systemic circulation were separated by the artificial membrane (PVDF, polyvinylidenfluoride, 0.45 μm, 0.78 cm^2). The membrane surface was coated with 20 μL of lipid, which was used to simulate the microenvironment of lipids in vivo. Then, 16 mL PBS/FaSSIF/FeSSIF medium with pH 5.0 was added into the donor chamber, and 16 mL sink buffer was added into the acceptor chamber. In order to simulate the redissolution progress of precipitate in the GI tract, a slight excess of crystalline powder was added into the donor chamber. Both chambers were stirred at 200 rpm at 37 °C, and the concentration of each chamber was detected by immersed UV-probes at 320 nm and 340 nm for rivaroxaban and Drug-A, respectively. The flux was defined as the amount of compound passing through the unit area perpendicular to its flow direction in unit time and was calculated by the following equation [31]:(2) J(t)=Ct2−Ct1/A(t2−t1)×V where J(t) is the flux of a compound; Ct is the concentration of compound at t; V is the solution volume of the donor chamber; A is the area of the artificial membrane. […]

[4] = Equilibrium solubility / dissolution of precipitates and API in pH 6.5 FaSSIF buffer; assay type: physicochemical; conditions: FaSSIF buffer pH 6.5, 37 °C
Description: To estimate the solution properties of different crystal structures in near neutral or slightly acidic environments, the equilibrium solubility of various precipitates and API in the pH 6.5 FaSSIF buffer medium (FaB) was investigated. An excess sample was added to the medium, and the test of equilibrium solubility was performed with the stirring rate of 200 revolutions per minute (rpm) under 37 °C for 24 h. Sample concentration was detected every minute by Pion’s in situ fiber-optic UV dissolution monitoring system. All measurements were performed three times.

[5] = Intrinsic dissolution rate (disc method, Mini-IDR); assay type: physicochemical; conditions: same dissolution medium, 37 °C, 200 rpm
Description: The intrinsic dissolution rate (IDR) of compounds with different crystal structures was measured by the disc method based on the literature. About 10 mg of powder was loaded into the Mini-IDR compression system (Pion Inc., Billerica, MA, USA) and compressed at 100 psi (rivaroxaban) and 200 psi (Drug-A) for 1 min to obtain the miniaturized discs with a surface area of 0.071 cm^2. The discs were inserted into stirrer-die assembly and placed into flat-bottomed glass vials for dissolution analysis. At the start of the experiments, the magnetic stirrer was immediately switched on with the speed of 200 rpm, and then 10 mL of preheated (37 °C) dissolution media (FaSSIF buffer medium, FeSSIF buffer medium, FaSSIF medium and FeSSIF medium) were added into the vials at a constant temperature. The concentration was determined directly in the dissolution media every 30 s using an in situ UV probe for 2 h. All experiments were performed in triplicate, and the IDR was calculated with the following equation [30]:(1) IDR=V×dc/dt×1/A where V is the volume of medium in the glass vial; dc/dt is the slope of the straight line from the dissolution profile; A is the surface area of the disc.

Q: Which results are given for `O=C(NC[C@H]1CN(c2ccc(N3CCOCC3=O)cc2)C(=O)O1)c1ccc(Cl)s1` [Rivaroxaban]?
A: solubility at 24 h ([1]; FaSSIF, n = 3, read-out: Solubility of API, FaSSIF): 6.17 µg/mL (≈ 14.2 µM); solubility at 24 h ([1]; FeSSIF, n = 3, read-out: Solubility of API, FeSSIF): 10.6 µg/mL (≈ 24.3 µM); solubility at 24 h ([1]; pH 1.0 HCl solution, n = 3, read-out: Solubility of API, pH 1.0 HCl): 6.84 µg/mL (≈ 15.7 µM); solubility at 24 h ([1]; pH 5.0 phosphate buffer solution (PBS), aqueous buffer, thermodynamic from solid, pH 5.0 PBS, n = 3, read-out: Solubility of API, pH 5.0 PBS): 4.85 µg/mL (≈ 11.1 µM); solubility at 24 h ([1]; pH 6.5 phosphate buffer solution (PBS), pH 6.5 PBS, n = 3, read-out: Solubility of API, pH 6.5 PBS): 5.85 µg/mL (≈ 13.4 µM); solubility at 24 h ([1]; pH 8.0 phosphate buffer solution (PBS), pH 8.0 PBS, n = 3, read-out: Solubility of API, pH 8.0 PBS): 5.87 µg/mL (≈ 13.5 µM); log p [2]: 1.90; pKa [2]: 13.6; Permeability of API compared with precipitates ([3]; FeSSIF in the donor chamber): larger than that of precipitates obtained from biorelevant media; Permeability in donor chamber containing aqueous medium relative to donor chamber containing biorelevant medium ([3]; donor pH 5.0 PBS vs biorelevant medium, 37 °C, 200 rpm): about 1.92 fold; Dissolved rate of precipitates compared with API [4]: higher than that of API; Difference in equilibrium solubility between API and precipitates obtained from biorelevant media ([4]; 24 h, precipitates from FaSSIF, 0.5 × FeSSIF, FeSSIF, 2 × FeSSIF): no statistical difference; Influence of crystal structure (API vs precipitates) on intrinsic dissolution rate [5]: significant influence
